Source: patent US11926645B2, “Compounds and methods for treatment of viral infections” (priority 2020, dated 2024)
Where two headings read alike, the source gives them in different places.

Legend:
SARS-CoV-2-Nluc viruses = experiment: microbe, parasite or virus in culture; assay type: cell-based; conditions: Severe acute respiratory syndrome coronavirus 2; host cells A549-ACE2; read-out: EC50, WA1/2020-nano luciferase
in vitro [1] = assay type: cell-based; conditions: human; host cells A549-ACE2; read-out: CC50, A549-ACE2
Description: The cytotoxicity of compounds was determined in A549-hACE2 cells in the following manner. Compounds (200 nL) were spotted onto 384-well Grenier plates prior to seeding 5000 A549-hACE2 cells/well in a volume of 40 μL culture medium. The plates were incubated at 37° C. for 48 hours with 5% CO2. On day 2, 40 μL of CellTiter-Glo (Promega) was added and mixed 5 times.

[2] = tested on: RSV-Fluc (Respiratory Syncytial virus strain A2 containing the firefly luciferase reporter); experiment: microbe, parasite or virus in culture; assay type: cell-based; conditions: human respiratory syncytial virus, 72 h, NHBE cells, three days
[3] = tested on: SARS-CoV-2 SA/2020 B.1.351; experiment: microbe, parasite or virus in culture; assay type: cell-based; conditions: Severe acute respiratory syndrome coronavirus 2, Vero C1008
SARS-CoV-2 WA1/2020 A = experiment: microbe, parasite or virus in culture; assay type: cell-based; conditions: Severe acute respiratory syndrome coronavirus 2, Vero C1008
SARS-CoV-2 BZ/2021 P.1 = experiment: microbe, parasite or virus in culture; assay type: cell-based; conditions: Severe acute respiratory syndrome coronavirus 2, Vero C1008
SARS-CoV-2 CA/2020 = experiment: microbe, parasite or virus in culture; assay type: cell-based; conditions: Severe acute respiratory syndrome coronavirus 2, Vero C1008
in vitro [4] = assay type: in vitro ADME, Human; conditions: human, s9, pH 7.4
Description: (§1) Duplicate aliquots of test compound or positive control substrate (GS-7340) were added to S9 stock diluted with 100 mM phosphate buffered saline, pH 7.4, to obtain a protein concentration of 1.0 mg/mL. The S9 metabolic reactions were initiated by the addition of the substrates to the S9 reaction mixture to a final concentration of 2 μM. At 0, 10, 20, 30, 60 and 120 min, 25 μL aliquots of the reaction mixture were transferred to plates containing 225 μl of IS/Q solution. After quenching, the plates were centrifuged at 3000×g for 30 minutes, and 150 μL aliquots of each supernatant were diluted with 150 μL water. Aliquots (10 μL) of the diluted supernatant were analyzed on a Thermo Q-Exactive mass spectrometer as described below.
(§2) Quantification of test compounds and controls was performed by analyte/internal standard peak area ratio (PAR) values measured on a Thermo Q-Exactive mass spectrometer coupled to a Dionex UltiMate 3000 HPLC with a Leap Technologies HTC PAL autosampler. The column used was a Thermo Hypersil GOLD (1.9 μm particle size, 2.1×50 mm). Mobile phase A consisted of 0.1% (v/v) formic acid in water. Mobile phase B consisted of 0.1% (v/v) formic acid in acetonitrile. Elution of analytes was achieved by a series of linear gradients of acetonitrile in water containing 0.1% (v/v) formic acid. The mass spectrometer was calibrated on a weekly basis and mass tolerance of 5 ppm was used.

in vitro [5] = assay type: in vitro ADME; conditions: s9, pH 7.4
Description: as §1, with “mM potassium” for “mM”, “phosphate buffer,” for “phosphate buffered saline,”, “of 2.4” for “of 1.0”, “At 2, 12, 25, 45, 65” for “At 0, 10, 20, 30, 60”, “and 90” for “and 120”, “150 μl,” for “150 μL”
as §2

[6] = male cynomolgus monkeys; oral Reference Compound A 5 mg/kg
[7] = male beagle dogs; oral Reference Compound A 5 mg/kg
[8] = female ferrets; oral Reference Compound A 20 mg/kg
[9] = male Balb/c mice; oral Reference Compound A 24 mg/kg
[10] = ferrets, single dose, Reference Compound A i.v. 20 mg/kg
in vivo [11] = conditions: male, cynomolgus monkey, po, 5 mg/kg
in vivo [12] = conditions: male, beagle, dog, po, 5 mg/kg
in vivo [13] = conditions: male, Sprague-Dawley, rat, po; for AUC(0-inf): Reference Compound A AUCinf.; for Cmax: Reference Compound A Cmax
in vivo [14] = conditions: female, po, 20 mg/kg
in vivo [15] = conditions: male, Balb/c, mouse, po, 24 mg/kg
in vitro [16] = conditions: African green monkey
in vitro [17] = conditions: human
in vitro [18] = conditions: hamster
in vitro [19] = conditions: human; remark: listed apart in the source
in vitro [20] = conditions: human, PrestoBlue
Plasma stability = conditions: human

N#C[C@@]1(c2ccc3c(N)ncnn23)O[C@H](CO)[C@@H](O)[C@H]1O [Reference Compound A, (2R,3R,4S,5R)-2-(4-aminopyrrolo[2,1-f][1,2,4]triazin-7-yl)-3,4-dihydroxy-5-(hydroxymethyl)tetrahydrofuran-2-carbonitrile]
EC50 (SARS-CoV-2-Nluc viruses): 1600 nM
CC50 (in vitro [1]): > 50 µM
EC50 [2]: 1970 nM
EC50 [3]: 340 nM
EC50 (SARS-CoV-2 WA1/2020 A): 680 nM
EC50 (SARS-CoV-2 BZ/2021 P.1): 550 nM
EC50 (SARS-CoV-2 CA/2020): 210 nM
half-life at 2 μM (in vitro [4]): > 700 min
half-life at 2 μM (in vitro [5]): 592 min
Reference Compound A F % (based on compound A mg-eq dose) [6]: 3.4%
Reference Compound A F % (based on compound A mg-eq dose) [7]: 89%
Reference Compound A F % (based on Reference Compound A mg-eq dose) [8]: 87%
Reference Compound A F % (based on compound A mg-eq dose) [9]: 33%
Reference Compound A AUClast [10]: 81.1 µM·h
Reference Compound A IV - CL [10]: 0.86 L/h/kg
Reference Compound A t1/2 [10]: 3.4 h
Cmax ([10]; read-out: Reference Compound A Cmax): 54.2 µM
AUC(0-inf) (in vivo [11]): 1.86 µM·h
Cmax (in vivo [11]): 536 nM
AUC(0-inf) (in vivo [12]): 83.9 µM·h
Cmax (in vivo [12]): 27.3 µM
AUC(0-inf) (in vivo [13]; 5 mg/kg): 3.07 µM·h
Cmax (in vivo [13]; 5 mg/kg): 875 nM
AUC(0-inf) (in vivo [13]; 10 mg/kg): 2.36 µM·h
Cmax (in vivo [13]; 10 mg/kg): 578 nM
AUC(0-inf) (in vivo [14]): 70.9 µM·h
Cmax (in vivo [14]): 11.7 µM
AUC(0-inf) (in vivo [15]): 45.1 µM·h
Cmax (in vivo [15]): 13.7 µM
CC50 (in vitro [16]): > 100 µM
CC50 (in vitro [17]): > 100 µM
CC50 (in vitro [18]): > 100 µM
CC50 (in vitro [19]): > 100 µM
CC50 (in vitro [20]; CC50, F2 HAE, primary HAE donor F2, 72 hours): > 100 µM
CC50 (in vitro [20]; CC50, F3 HAE, primary HAE donor F3, 72 hours): > 100 µM
CC50 (in vitro [20]; CC50, M2 HAE, primary HAE donor M2, 72 hours): > 100 µM
CC50 (in vitro [20]; CC50, M6 HAE, primary HAE donor M6, 72 hours): > 100 µM
half-life at 2 μM (Plasma stability): > 1500 min
